Laboratory results reported in PubChem BioAssay AID1963961 (Molecular Pharmacology Branch, DTP, NCI, 2024).
pIC50: −log10 of the molar value.

System: K98450-129-R-PDC multicell spheroids, viability
Assay: Anticancer human tumor K98450-129-R-PDC patient-derived colon adenocarcinoma cell line growth inhibition [PI3K]
Settings: for pIC50: curve of first compound; for viability, T/C: stronger effect = lower value
How it was run: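 Spheroid viability read-out. Co-cultures contained the tumor line plus HUVEC and human MSCs. Each agent was paired with a PI3K inhibitor (inavolisib, alpelisib, duvelisib, copanlisib) across half-log dilutions starting at clinical Cmax, or at 10 microM when Cmax was unknown.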

[1] = second compound 0.0316 µM, first compound 0.0316 µM
[2] = second compound 0.0316 µM, first compound 0.1 µM
[3] = second compound 0.0316 µM, first compound 0.316 µM
[4] = second compound 0.0316 µM, first compound 1 µM
[5] = second compound 0.0316 µM, first compound 3.16 µM
[6] = second compound 0.0316 µM, first compound 10 µM
[7] = second compound 0.1 µM, first compound 0.0316 µM
[8] = second compound 0.1 µM, first compound 0.1 µM
[9] = second compound 0.1 µM, first compound 0.316 µM
[10] = second compound 0.1 µM, first compound 1 µM
[11] = second compound 0.1 µM, first compound 3.16 µM
[12] = second compound 0.1 µM, first compound 10 µM
[13] = second compound 0.316 µM, first compound 0.0316 µM
[14] = second compound 0.316 µM, first compound 0.1 µM
[15] = second compound 0.316 µM, first compound 0.316 µM
[16] = second compound 0.316 µM, first compound 1 µM
[17] = second compound 0.316 µM, first compound 3.16 µM
[18] = second compound 0.316 µM, first compound 10 µM
[19] = second compound 1 µM, first compound 0.0316 µM
[20] = second compound 1 µM, first compound 0.1 µM
[21] = second compound 1 µM, first compound 0.316 µM
[22] = second compound 1 µM, first compound 1 µM
[23] = second compound 1 µM, first compound 3.16 µM
[24] = second compound 1 µM, first compound 10 µM
[25] = second compound 3.16 µM, first compound 0.0316 µM
[26] = second compound 3.16 µM, first compound 0.1 µM
[27] = second compound 3.16 µM, first compound 0.316 µM
[28] = second compound 3.16 µM, first compound 1 µM
[29] = second compound 3.16 µM, first compound 3.16 µM
[30] = second compound 3.16 µM, first compound 10 µM
[31] = second compound 10 µM, first compound 0.0316 µM
[32] = second compound 10 µM, first compound 0.1 µM
[33] = second compound 10 µM, first compound 0.316 µM
[34] = second compound 10 µM, first compound 1 µM
[35] = second compound 10 µM, first compound 3.16 µM
[36] = second compound 10 µM, first compound 10 µM
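Also: spheroids exposed to agents for seven days before read-out.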

## CC1(C)CCC(CN2CCN(c3ccc(C(=O)NS(=O)(=O)c4ccc(NCC5CCOCC5)c([N+](=O)[O-])c4)c(Oc4cnc5[nH]ccc5c4)c3)CC2)=C(c2ccc(Cl)cc2)C1 + CC(Nc1ncnc2nc[nH]c12)c1cc2cccc(Cl)c2c(=O)n1-c1ccccc1
Second compound 0.0316 µM
  pIC50: 5.28
Second compound 0.1 µM
  pIC50: 5.25
Second compound 0.316 µM
  pIC50: 5.27
Second compound 1 µM
  pIC50: 5.28
Second compound 3.16 µM
  pIC50: 5.26
Second compound 10 µM
  pIC50: 5.29
[1]
  viability, T/C: 96.2%
[2]
  viability, T/C: 94.7%
[3]
  viability, T/C: 96.2%
[4]
  viability, T/C: 118%
[5]
  viability, T/C: 84.8%
[6]
  viability, T/C: 6.25%
[7]
  viability, T/C: 100%
[8]
  viability, T/C: 104%
[9]
  viability, T/C: 105%
[10]
  viability, T/C: 100%
[11]
  viability, T/C: 97.4%
[12]
  viability, T/C: 3.46%
[13]
  viability, T/C: 135%
[14]
  viability, T/C: 104%
[15]
  viability, T/C: 94.9%
[16]
  viability, T/C: 98.6%
[17]
  viability, T/C: 94.4%
[18]
  viability, T/C: 3.48%
[19]
  viability, T/C: 87.8%
[20]
  viability, T/C: 116%
[21]
  viability, T/C: 89%
[22]
  viability, T/C: 88.5%
[23]
  viability, T/C: 87.5%
[24]
  viability, T/C: 3.81%
[25]
  viability, T/C: 85.8%
[26]
  viability, T/C: 105%
[27]
  viability, T/C: 90.4%
[28]
  viability, T/C: 86.1%
[29]
  viability, T/C: 95.8%
[30]
  viability, T/C: 3.31%
[31]
  viability, T/C: 86.4%
[32]
  viability, T/C: 87.6%
[33]
  viability, T/C: 82.9%
[34]
  viability, T/C: 75.3%
[35]
  viability, T/C: 88.1%
[36]
  viability, T/C: 3.12%

## CC(Cn1ccc(-c2ccc(C#N)c(Cl)c2)n1)NC(=O)c1cc(C(C)O)[nH]n1 (stereo not drawn) + COc1c(OCCCN2CCOCC2)ccc2c3n(c(=NC(=O)c4cnc(N)nc4)nc12)CCN3
Second compound 0.00316 µM
  pIC50: < 5.00
Second compound 0.01 µM
  pIC50: < 5.00
Second compound 0.0316 µM
  pIC50: < 5.00
Second compound 0.1 µM
  pIC50: < 5.00
Second compound 0.316 µM
  pIC50: < 5.00
Second compound 1 µM
  pIC50: 5.31
Second compound 0.00316 µM, first compound 0.0316 µM
  viability, T/C: 102%
Second compound 0.00316 µM, first compound 0.1 µM
  viability, T/C: 97.7%
Second compound 0.00316 µM, first compound 0.316 µM
  viability, T/C: 117%
Second compound 0.00316 µM, first compound 1 µM
  viability, T/C: 104%
Second compound 0.00316 µM, first compound 3.16 µM
  viability, T/C: 107%
Second compound 0.00316 µM, first compound 10 µM
  viability, T/C: 111%
Second compound 0.01 µM, first compound 0.0316 µM
  viability, T/C: 116%
Second compound 0.01 µM, first compound 0.1 µM
  viability, T/C: 95%
Second compound 0.01 µM, first compound 0.316 µM
  viability, T/C: 105%
Second compound 0.01 µM, first compound 1 µM
  viability, T/C: 102%
Second compound 0.01 µM, first compound 3.16 µM
  viability, T/C: 90.7%
Second compound 0.01 µM, first compound 10 µM
  viability, T/C: 89.5%
[1]
  viability, T/C: 88.9%
[2]
  viability, T/C: 92.9%
[3]
  viability, T/C: 80.5%
[4]
  viability, T/C: 89.6%
[5]
  viability, T/C: 93.1%
[6]
  viability, T/C: 75.8%
[7]
  viability, T/C: 74.9%
[8]
  viability, T/C: 79%
[9]
  viability, T/C: 82.1%
[10]
  viability, T/C: 95.2%
[11]
  viability, T/C: 90%
[12]
  viability, T/C: 71.1%
[13]
  viability, T/C: 47.2%
[14]
  viability, T/C: 59.4%
[15]
  viability, T/C: 64.2%
[16]
  viability, T/C: 62.1%
[17]
  viability, T/C: 72.1%
[18]
  viability, T/C: 43.6%
[19]
  viability, T/C: 48.5%
[20]
  viability, T/C: 59.8%
[21]
  viability, T/C: 63.2%
[22]
  viability, T/C: 52.1%
[23]
  viability, T/C: 54.2%
[24]
  viability, T/C: 44%

## Cn1ncnc1[C@H]1c2n[nH]c(=O)c3cc(F)cc(c23)N[C@@H]1c1ccc(F)cc1 + CC(Nc1ncnc2nc[nH]c12)c1cc2cccc(Cl)c2c(=O)n1-c1ccccc1
Second compound 0.0316 µM
  pIC50: < 7.00
Second compound 0.1 µM
  pIC50: < 7.00
Second compound 0.316 µM
  pIC50: < 7.00
Second compound 1 µM
  pIC50: < 7.00
Second compound 3.16 µM
  pIC50: < 7.00
Second compound 10 µM
  pIC50: < 7.00
Second compound 0.0316 µM, first compound 0.000316 µM
  viability, T/C: 108%
Second compound 0.0316 µM, first compound 0.001 µM
  viability, T/C: 118%
Second compound 0.0316 µM, first compound 0.00316 µM
  viability, T/C: 111%
Second compound 0.0316 µM, first compound 0.01 µM
  viability, T/C: 111%
[1]
  viability, T/C: 97.9%
[2]
  viability, T/C: 87.2%
Second compound 0.1 µM, first compound 0.000316 µM
  viability, T/C: 110%
Second compound 0.1 µM, first compound 0.001 µM
  viability, T/C: 106%
Second compound 0.1 µM, first compound 0.00316 µM
  viability, T/C: 97.5%
Second compound 0.1 µM, first compound 0.01 µM
  viability, T/C: 107%
[7]
  viability, T/C: 104%
[8]
  viability, T/C: 114%
Second compound 0.316 µM, first compound 0.000316 µM
  viability, T/C: 109%
Second compound 0.316 µM, first compound 0.001 µM
  viability, T/C: 97.5%
Second compound 0.316 µM, first compound 0.00316 µM
  viability, T/C: 112%
Second compound 0.316 µM, first compound 0.01 µM
  viability, T/C: 98.3%
[13]
  viability, T/C: 108%
[14]
  viability, T/C: 85.5%
Second compound 1 µM, first compound 0.000316 µM
  viability, T/C: 100%
Second compound 1 µM, first compound 0.001 µM
  viability, T/C: 97.5%
Second compound 1 µM, first compound 0.00316 µM
  viability, T/C: 93.8%
Second compound 1 µM, first compound 0.01 µM
  viability, T/C: 83.6%
[19]
  viability, T/C: 94.5%
[20]
  viability, T/C: 95.8%
Second compound 3.16 µM, first compound 0.000316 µM
  viability, T/C: 103%
Second compound 3.16 µM, first compound 0.001 µM
  viability, T/C: 100%
Second compound 3.16 µM, first compound 0.00316 µM
  viability, T/C: 99.3%
Second compound 3.16 µM, first compound 0.01 µM
  viability, T/C: 104%
[25]
  viability, T/C: 102%
[26]
  viability, T/C: 88%
Second compound 10 µM, first compound 0.000316 µM
  viability, T/C: 86.5%
Second compound 10 µM, first compound 0.001 µM
  viability, T/C: 120%
Second compound 10 µM, first compound 0.00316 µM
  viability, T/C: 88.2%
Second compound 10 µM, first compound 0.01 µM
  viability, T/C: 87.8%
[31]
  viability, T/C: 98.3%
[32]
  viability, T/C: 91.8%

## CCCS(=O)(=O)Nc1ccc(F)c(C(=O)c2c[nH]c3ncc(-c4ccc(Cl)cc4)cc23)c1F + CC(Nc1ncnc2nc[nH]c12)c1cc2cccc(Cl)c2c(=O)n1-c1ccccc1
Second compound 0.0316 µM
  pIC50: 5.29
Second compound 0.1 µM
  pIC50: 5.22
Second compound 0.316 µM
  pIC50: 5.28
Second compound 1 µM
  pIC50: 5.26
Second compound 3.16 µM
  pIC50: 5.23
Second compound 10 µM
  pIC50: 5.26
[1]
  viability, T/C: 118%
[2]
  viability, T/C: 97.9%
[3]
  viability, T/C: 106%
[4]
  viability, T/C: 113%
[5]
  viability, T/C: 85.5%
[6]
  viability, T/C: 2.37%
[7]
  viability, T/C: 127%
[8]
  viability, T/C: 94.6%
[9]
  viability, T/C: 121%
[10]
  viability, T/C: 112%
[11]
  viability, T/C: 109%
[12]
  viability, T/C: 3.82%
[13]
  viability, T/C: 96.8%
[14]
  viability, T/C: 97.2%
[15]
  viability, T/C: 101%
[16]
  viability, T/C: 111%
[17]
  viability, T/C: 89%
[18]
  viability, T/C: 1.77%
[19]
  viability, T/C: 97%
[20]
  viability, T/C: 104%
[21]
  viability, T/C: 101%
[22]
  viability, T/C: 120%
[23]
  viability, T/C: 93.7%
[24]
  viability, T/C: 2.88%
[25]
  viability, T/C: 97.1%
[26]
  viability, T/C: 102%
[27]
  viability, T/C: 95.3%
[28]
  viability, T/C: 112%
[29]
  viability, T/C: 114%
[30]
  viability, T/C: 3.24%
[31]
  viability, T/C: 96.2%
[32]
  viability, T/C: 102%
[33]
  viability, T/C: 105%
[34]
  viability, T/C: 102%
[35]
  viability, T/C: 94.2%
[36]
  viability, T/C: 3.07%
